Source: patent US9671405B2, “Identifying taxane sensitivity in prostate cancer patients” (Cornell University, priority 2012, dated 2017)

Assays:
Format in all cases: cell-based, human
ARv5,6,7 = test: Nuclear localization of GFP-tagged ARv5,6,7 in M12 cells, confocal microscopy; conditions: 10 nM R1881 2 h
Excerpt: (§1) Cells were then fixed, immunostained for tubulin, and imaged for GFP-AR and tubulin by confocal microscopy. Androgen receptor is shown as lighter staining (green in the original), while tubulin staining is darker but visible as lighter areas in the images (red in the original). Representative, high-magnification images from each condition are shown. […] Scale bar: 10 μm. FIG. 9D is a bar graph depicting the ratio of cells with nuclear androgen receptor over those with cytoplasmic androgen receptor for each condition. […] Relative mRNA expression of TMPRSS2 and FKBP51 was assessed by qPCR. Values were corrected to GAPDH and normalized to untreated M12 cells expressing control lentivirus (M12 lenti). […] Androgen receptor protein expression was detected by staining with anti-androgen receptor or anti-ARN-21 antibodies. […] Cells were then fixed, immunostained for tubulin, and imaged for GFP-AR and tubulin by confocal microscopy. […]
(§2) In addition, M12 cells stably expressing GFP-tagged AR-wt, AR or variants were generated in Or Giannakakou's laboratory. GFP^+ cells from all three androgen receptor cell lines were sorted using fluorescence activated cell sorting (FACS) on a BD FACSAria II cell sorter (BD Biosciences, Franklin Lakes, N.J., USA) and subsequently expanded in media containing G418 ([…]). […]

ARv7 = test: Nuclear localization of GFP-tagged ARv7 in M12 cells, confocal microscopy; conditions: 10 nM R1881 2 hr
Excerpt: as §1, §2

leucocytes = test: On-chip ex-vivo taxane treatment, microtubule bundling in leucocytes present on the chip; conditions: FIG. 5F patient (patient 4), 50 nM paclitaxel ex-vivo on-chip
Excerpt: FIG. 5A-5F illustrates on-chip assessment of effective drug-target engagement in viable GEDI-captured circulating tumor cells, and that tubulin responses to taxane treatment can be assessed in GEDI-captured cells. […] One ml of spiked blood was then passed through each of three GEDI devices. […] Following drug treatment, cells were fixed and processed for immunofluorescence staining using antibodies against tubulin and CD45. DAPI was used as a DNA counterstain to evaluate nuclear integrity. […] Following drug treatment, the PSMA-captured cells were fixed and processed for immunofluorescence staining as in FIG. 5A with the addition of cytokeratin-18 as an alternative epithelial marker. […]
For ex-vivo drug treatment experiments, the blood sample from each patient was divided and 1 ml was flown to each of three GEDI devices simultaneously. […] All circulating tumor cells (PSMA^+/CD45−/DAPI^+) were assessed for the presence of microtubule bundles as evidence of effective drug-target engagement. The percent of circulating tumor cells with evidence of microtubule bundling was calculated. In all samples analyzed, bundling was clearly apparent by the distinct shape, width, orientation and increased fluorescence intensity of microtubule bundles as compared with microtubules from untreated cells. […]

[1] = test system: GEDI-captured circulating tumor cells from castration-resistant prostate cancer patients; test: On-chip ex-vivo taxane treatment of GEDI-captured patient circulating tumor cells, microtubule bundling as drug-target engagement
Excerpt: One ml of spiked blood was then passed through each of three GEDI devices. […] Following drug treatment, cells were fixed and processed for immunofluorescence staining using antibodies against tubulin and CD45. DAPI was used as a DNA counterstain to evaluate nuclear integrity. […] Following drug treatment, the PSMA-captured cells were fixed and processed for immunofluorescence staining as in FIG. 5A with the addition of cytokeratin-18 as an alternative epithelial marker.
For ex-vivo drug treatment experiments, the blood sample from each patient was divided and 1 ml was flown to each of three GEDI devices simultaneously. […] At the end of treatment, the GEDI-captured cells were fixed with PHEMO buffer and processed for multiplex confocal microscopy following immunostaining with different cell surface and cytoplasmic antibodies as indicated. […] The percent of circulating tumor cells with evidence of microtubule bundling was calculated. […] In addition, DAPI counterstain was used to assess the presence of mitotic or apoptotic nuclei following drug treatment.
The GEDI-captured circulating tumor cells were tested in situ (i.e., while in the GEDI device) to evaluate their chemosensitivity to taxanes, and predict a patient's clinical response to therapy. […] Microtubule bundling is the first event induced by taxane treatment, resulting in downstream mitotic arrest and apoptotic cell death, and is therefore an appropriate marker of efficient taxane drug-target engagement.

Row | Compound | nuclear accumulation of ARv5,6,7 induced by R1881 (ARv5,6,7) | nuclear accumulation of ARv7 induced by R1881 (ARv7) | leucocytes present on the chip showing microtubule bundling (leucocytes) [%] | microtubule bundling of circulating tumor cells ([1]; patient 2, 100 nM or 1 uM paclitaxel ex-vivo on-chip) | response of circulating tumor cells to drug treatment ([1]; patient 4, 50 nM paclitaxel ex-vivo on-chip) | apoptotic nuclei in circulating tumor cells ([1]; patient docetaxel progressor on cabazitaxel, ex vivo 24 hr) | effect on microtubule cytoskeleton of captured circulating tumor cells ([1]; patient of FIG. 5B (docetaxel progressor), 100 nM ex vivo, 24 hr) | mitotic arrest of captured circulating tumor cells ([1]; same patient as FIG. 5B (FIG. 5C), ex vivo 24 hr)
1 | C[C@]1(O)CC[C@H]2[C@@H]3CCC4=CC(=O)CCC4=C3C=C[C@@]21C [R1881, Methyltrienolone] | did not induce any further nuclear accumulation | does not increase nuclear accumulation |  |  |  |  |  | 
2 | CC(=O)O[C@H]1C(=O)[C@@]2(C)[C@H]([C@H](OC(=O)c3ccccc3)[C@]3(O)C[C@H](OC(=O)[C@H](O)[C@@H](NC(=O)c4ccccc4)c4ccccc4)C(C)=C1C3(C)C)[C@]1(OC(C)=O)CO[C@@H]1C[C@@H]2O [paclitaxel] |  |  | ~100 | display microtubule bundling | heterogeneous response | exhibited apoptotic nuclei | clear evidence of microtubule bundling | signs of aberrant mitotic arrest
